These results are taken from patent publication EP3895695A1, “SUPERCRITICAL CARBON DIOXIDE-BASED METHODOLOGY TO FORMULATE BIOACTIVE PREPARATIONS” (Universidad Autónoma de Madrid, priority 2020, dated 2021).

SMILES strings stand for the structures.

Series [1] is described as follows: HPLC quantification of quercetin, rosmarinic acid and carnosic acid in BIOSAS lipid products. The class given is physicochemical. As to conditions: for amount dispersed in oil: rosemary BIOSAS dispersion. The source says:
Carnosic acid and rosmarinic acid were identified and quantified in the case of BIOSAS rosemary samples following the procedures described by […]. Garcia-Risco, T. Fornari, G. Reglero, Isolation of carsonic acid from rosemary extracts using semi-preparative supercritical fluid chromatography, J. Chromatogr. A. 1286 (2013) 208-215. doi:10.1016/j.chroma.2013.02.044 using a HPLC Prominence-i LC-2030C 3D Plus (Shimadzu) equipped with a RP-C18 (250 × 4.6 mm; 3 μm) chromatography column. The mobile phase consisted of 0.1 % of phosphoric acid in water (solvent A) and acetonitrile (solvent B) applying the following gradient: 0-8 min, 77 % A, 8-25 min, 25 % A, 25-40 min 25 % A and the 40-45 min 77 % A. Initial conditions were gained in 5 min. The flow rate was constant at 0.7 ml/min. Injection volume was 20 μl and the detection was accomplished using a diode array detection system, storing the signal at a wavelength of 230, 280 and 350 nm. In the case of quercetin BIOSAS dispersion, HPLC analysis was carried out as previously described by Wei et al.. A Prominence-i LC-2030C 3D Plus (Shimadzu) equipped with a quaternary solvent delivery system, an autosampler and DAD detector and RP-C18 (250 × 4.6 mm; 3 μm) was used. The column temperature was set at 25 °C. The mobile phase consists of acetonitrile (A) and 0.026% aqueous H3PO4 (v/v), applying the following gradient elution: at 0-20 min, 20%-25% A, 20-30 min, 25%-34% A, 30-50 min, 34%-50% A, 50-60 min, 50%-60% A and 60-80 min, 60% A. After 5 min, the initial conditions were achieved. The flow rate was 0.7 ml/min and was kept constant during analysis. Injection volume was 20 μl and detection was accomplished at 254, 280 and 370 nm.

For the next series, the system named is mice. As to conditions: intravenous administration; cited from earlier work.

Regarding `O=c1c(O)c(-c2ccc(O)c(O)c2)oc2cc(O)cc(O)c12` [quercetin, 2-(3,4-Dihydroxyphenyl)-3,5,7-trihydroxy-4H-1-benzopyran-4-one,3,3',4',5,6-Pentahydroxyflavone - Quercetin], the “concentration of quercetin in the flaxseed oil” value in series [1] (HPLC analysis, BIOSAS 20 MPa, 313.15 K) is recorded as 1.55 ± 0.05 % mass. Moreover, the “amount dispersed by BIOSAS process” value in series [1] (in high molecular weight triacylglycerols (flaxseed oil), 313.15 K) is recorded as greater than 15 mg/g.

Take `CC(C)c1cc2c(c(O)c1O)[C@@]1(C(=O)O)CCCC(C)(C)[C@@H]1CC2` [carnosic acid, Carnosic acid]: the “amount dispersed in oil” value is on record as 4.90 mg/g in series [1] (argan oil) and 6.39 mg/g in series [1] (flaxseed oil).

As to `O=C(/C=C/c1ccc(O)c(O)c1)O[C@H](Cc1ccc(O)c(O)c1)C(=O)O` [rosmarinic acid], the LD50 (in general, the dose expected to kill half of the subjects tested) with mice is 561 mg/kg. The “amount dispersed in oil” value was roughly 0.40 mg/g in series [1] (argan oil) and 0.51 mg/g in series [1] (flaxseed oil).
